Measured values taken from the NIST ThermoML archive (doi:10.1021/je0342116).
Numbers after ± are expanded uncertainties. Each block holds one compound with its values, some of them ahead of it.

Assay: activity coefficient (dimensionless); of the first substance listed, at infinite dilution; xn = mol fraction of the nth substance listed
Settings: Liquid, Chromatography, x1 = 0

SMILES: C=CC=C [1,3-butadiene] + CC(C)O
activity coefficient (249.97 K): 3.9 ± 0.2
activity coefficient (270.03 K): 3.8 ± 0.2
activity coefficient (290 K): 3.7 ± 0.2
activity coefficient (310 K): 3.5 ± 0.2
activity coefficient (330 K): 3.3 ± 0.2

SMILES: C=CCC [1-butene] + CC(C)O
activity coefficient (249.97 K): 4.4 ± 0.2
activity coefficient (270.03 K): 4.4 ± 0.2
activity coefficient (290 K): 4.3 ± 0.2
activity coefficient (310 K): 4.1 ± 0.2
activity coefficient (330 K): 3.9 ± 0.2

SMILES: CC(C)C [2-methylpropane] + CC(C)O
activity coefficient (249.96 K): 5.4 ± 0.3
activity coefficient (270.04 K): 5.3 ± 0.2
activity coefficient (290 K): 5.2 ± 0.2
activity coefficient (310 K): 5 ± 0.2
activity coefficient (330 K): 4.7 ± 0.2

SMILES: C=C(C)C [2-methylpropene] + CC(C)O
activity coefficient (249.97 K): 4.4 ± 0.2
activity coefficient (270.03 K): 4.3 ± 0.2
activity coefficient (290 K): 4.2 ± 0.2
activity coefficient (310 K): 4 ± 0.2
activity coefficient (330 K): 3.8 ± 0.2

SMILES: C/C=C/C [(E)-2-butene] + CC(C)O
activity coefficient (249.96 K): 4.3 ± 0.2
activity coefficient (270.04 K): 4.3 ± 0.2
activity coefficient (290 K): 4.2 ± 0.2
activity coefficient (310 K): 4.1 ± 0.2
activity coefficient (330 K): 3.9 ± 0.2

SMILES: CCCC [butane] + CC(C)O
activity coefficient (249.97 K): 5.2 ± 0.2
activity coefficient (270.03 K): 5.1 ± 0.2
activity coefficient (290 K): 5.1 ± 0.2
activity coefficient (310 K): 4.9 ± 0.2
activity coefficient (330 K): 4.6 ± 0.2

Now from value to compound:

activity coefficient (249.96 K): 4.5 ± 0.2
activity coefficient (270.04 K): 4.5 ± 0.2
activity coefficient (290 K): 4.4 ± 0.2
activity coefficient (310 K): 4.3 ± 0.2
activity coefficient (330 K): 4.2 ± 0.2
SMILES: CCC [propane] + CC(C)O

activity coefficient (249.96 K): 3.8 ± 0.2
activity coefficient (270.04 K): 3.7 ± 0.2
activity coefficient (290 K): 3.7 ± 0.2
activity coefficient (310 K): 3.6 ± 0.2
activity coefficient (330 K): 3.4 ± 0.2
SMILES: C=CC [propene] + CC(C)O
